According to paper PMC3146629 (2011):

Molecular target: HSPA8 (Hsc70) (Bos taurus, UniProt P19120)
Assay: […]-1H TROSY NMR titration
Type: binding

Sequence of HSPA8 (Hsc70) (P19120 1-383): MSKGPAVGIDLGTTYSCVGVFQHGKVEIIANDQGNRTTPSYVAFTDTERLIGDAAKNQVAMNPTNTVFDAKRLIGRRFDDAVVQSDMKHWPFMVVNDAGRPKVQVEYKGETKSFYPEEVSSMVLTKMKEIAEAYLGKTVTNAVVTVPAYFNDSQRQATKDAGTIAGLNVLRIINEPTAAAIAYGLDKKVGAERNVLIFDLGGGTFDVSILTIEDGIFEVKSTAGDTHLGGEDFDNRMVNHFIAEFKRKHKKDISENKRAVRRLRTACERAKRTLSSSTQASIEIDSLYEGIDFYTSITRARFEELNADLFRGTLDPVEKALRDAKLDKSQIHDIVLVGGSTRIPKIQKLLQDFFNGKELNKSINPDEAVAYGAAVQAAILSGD

SMILES: CCn1c(=Cc2cccc[n+]2CC)sc(=C2Sc3ccccc3N2C)c1=O [MKT-077, 1-ethyl-2-[[3-ethyl-5-(3-methylbenzothiazolin-2-yliden)]-4-oxothiazolidin-2-ylidenemethyl] pyridinium chloride]
- Kd: < 10 µM
